Test results from patent US4879311A, “Derivatives of benzoyloxyacetic acid, and preparation and formulations thereof for therapeutic use” (Inverni della Beffa S.p.A., priority 1987, dated 1989).
Where “and” joins values, the source holds several entries; their conditions need not be identical. Equal values may be shown once. Entries after “also recorded” stand apart in the source; their conditions may differ. Where a name gives a salt, the structure may show the parent alone. Read-outs that look alike come from different tables or passages of the source.

Assays:
[1] = test system: 6-day old air pouch irritated by carrageenan; test: irritation of 6-day old air pouch by carrageenan in the rat; format: in vivo
Method: (2) Irritation of 6-day old air pouch by carrageenan in the rat (A. D. Sedgwick, Y. M. Sin, A. R. Mackay, A. Al-Duaij and D. A. Willoughby; J. Pharm. Pharmacol.; 36, 171, 1984).
The formation of a dorsal pouch was induced in the rat by dorsal subcutaneous administration of 20 ml of air. 10 ml of air were then injected every day for three consecutive days in order to keep the cavity permeable. Six days after the first injection of air, the dorsal pouch in the animals was treated with 1 ml of 1% carrageenan in physiological solution.
Compound Ib was administered by gastric probe, 24 hours and 1 hour before administration of the irritating agent.
The animals, dividedinto groups of five, were killed 4 hours and 24 hours after the carrageenan. The volume of the exudate and the total number of leucocytes were measured.

arachidonic acid oedema = arachidonic acid oedema in the rat, oral administration; format: in vivo; conditions: for change of Increase of Original Volume (in parentheses), 60 min: vs controls
Method: (1) Arachidonic acid oedema in the rat (M. J. Di Martino, G. C. Campbell Jnr., C. E. Wolff and N. Hanna, Agents and Actions; 21, 303, 1987)
Compound Ib was administered by gastric probe one hour before subplantar injection of 0.1 ml of 0.5% arachidonic acid in carbonate buffer (pH 8-8.2).
The volume of the paws of the treated animals and of the control was measured with a plethysmometer immediately and 60 minutes after the irritating agent (peak time of oedema).

[2] = test system: reaction time to heat (hot plate); format: in vivo, mouse; conditions: oral; for Percentages of mice protected at 30 minutes / Percentages of mice protected at 60 minutes: reaction time 15 seconds or more, 55° C.
Method: (§1) The anti-inflammatory and analgesic activity of compound Ib was tested after oral administration in the carrageenin oedema test in the rat (C. A. Winter et al. Proc. Soc. Exp. Biol. Med., 111, 544, 1962), in the phenylquinone writhing test (I. C. Hendershot and J. J. Forsaith, Pharmacol. Exp. Ther., 125, 237, 1959) and in the hot plate test on the mouse (N. B. Eddy and D. J. Leimbach, J. Pharmacol. Exp. Ther., 107, 385, 1953). The activity of the compound was compared with equimolecular doses of sodium meclofenamate. A comparison was also made between the acute toxicity of the two substances by measuring the oral LD 50 on the rat.
The substances under test were administered by a stomach probe to preselected mice. The controls and the treated animals were placed on the hot plate (55° C.) one at a time immediately after treatment. The reaction time to heat, was measured 30 and 60 minutes after treatment. Animals were considered protected when the reaction time was 15 seconds or more.

[3] = test system: writhing induced by phenylquinone; test: phenylquinone writhing test, oral administration; format: in vivo, mouse
Method: as §1
The substances under test were administered by a stomach probe 1 hour before intraperitoneal injection of phenylquinone (2 mg/kg). The abdominal contractions of the treated animals and the controls were counted during every 10 minutes for half an hour.

rat = test: acute toxicity on the rat, oral LD50; format: in vivo
Method: as §1
(§2) The two LD 50 values were calculated by the probit method.

[4] = acute toxicity on the rat, oral LD50; format: in vivo; conditions: rat, in vivo, po
Method: as §1, §2

carrageenin oedema = carrageenin oedema test in the rat, oral administration; format: in vivo; conditions: for % change of increase of original volume, 1 h / % change of increase of original volume, 2 h / % change of increase of original volume, 3 h / % change of increase of original volume, 4 h / % change of increase of original volume, 5 h: vs controls
Method: as §1
The substances under test, dissolved in distilled water, were administered by a stomach probe 1 hour before subplantar injection of carrageenin (1% in sterile 0.9% NaCl aqueous solution). […]

pH of aqueous solution = format: physicochemical
[5] = os, Ib 31.75 mg/kg × 2 (**P < 0.01), sodium meclofenamate 27.5 mg/kg × 2 (*P < 0.05 vs controls), 24 h
[6] = os, Ib 31.75 mg/kg × 2, sodium meclofenamate 27.5 mg/kg × 2, 4 h, vs controls
[7] = os, Ib 31.75 mg/kg × 2, sodium meclofenamate 27.5 mg/kg × 2, 24 h, vs controls
[8] = Ib 12.7 mg/kg, sodium meclofenamate 11 mg/kg
[9] = Ib 25.4 mg/kg, sodium meclofenamate 22 mg/kg
[10] = oral, Ib 12.7 mg/kg, sodium meclofenamate 11.0 mg/kg
[11] = oral, Ib 25.4 mg/kg, sodium meclofenamate 22.0 mg/kg
[12] = oral, dose corresponding to 10 mg/kg meclofenamic acid (Ib 12.7 mg/kg; sodium meclofenamate 11.0 mg/kg)
[13] = oral, dose corresponding to 10 mg/kg meclofenamic acid (Ib 12.7 mg/kg; sodium meclofenamate 11.0 mg/kg), **P < 0.01 vs controls
[14] = oral, dose corresponding to 20 mg/kg meclofenamic acid (Ib 25.4 mg/kg; sodium meclofenamate 22.0 mg/kg), **P < 0.01 vs controls
[15] = rat, oral, dose corresponding to 10 mg/kg meclofenamic acid (Ib 12.7 mg/kg; sodium meclofenamate 11.0 mg/kg)
[16] = rat, oral, dose corresponding to 10 mg/kg meclofenamic acid
[17] = rat, oral, dose corresponding to 20 mg/kg meclofenamic acid (Ib 25,4 mg/kg; sodium meclofenamate 22,0 mg/kg), **P < 0.01 vs controls
[18] = rat, oral, dose corresponding to 20 mg/kg meclofenamic acid

**Q.** Which results are given for `Cc1ccc(Cl)c(Nc2ccccc2C(=O)OCC(=O)O)c1Cl` [Ib, sodium salt (Ib) of 2-[(2,6-dichloro-3-methylphenyl)-amino]benzoyloxyacetic acid]?
**A.** Leucocytes (m ± s.e.), 24 h [1, 5]: 16.08 ± 6.85 × 10^6; Volume of exudate (m ± s.e.), 24 h [1, 5]: 0.26 ± 0.06 mL; Leucocytes (m ± s.e.), 4 h ([1]; os, Ib 31.75 mg/kg × 2 (*P < 0.05 vs controls), sodium meclofenamate 27.5 mg/kg × 2, 4 h): 1.08 ± 0.19 × 10^6; change of leucocytes (in parentheses), 4 h [1, 6]: -76; change of volume of exudate (in parentheses), 4 h [1, 6]: -25; change of leucocytes (in parentheses), 24 h [1, 7]: -81; change of volume of exudate (in parentheses), 24 h [1, 7]: -71; Volume of exudate (m ± s.e.), 4 h ([1]; os, dose corresponding to 25 mg/kg meclofenamic acid × 2 (Ib 31.75; sodium meclofenamate 27.5 mg/kg), 4 h): 0.24 ± 0.02 mL; activity relative to the reference compound in inhibiting volume of exudate and total content of leucocytes ([1]; rat, oral, equimolar doses (in meclofenamic acid)): about twice as active as the reference compound; change of Increase of Original Volume (in parentheses), 60 min (arachidonic acid oedema; [8]): -15; change of Increase of Original Volume (in parentheses), 60 min (arachidonic acid oedema; Ib 38.1 mg/kg, sodium meclofenamate 33 mg/kg): -40; Increase of Original Volume (m ± s.e.), 60 min (arachidonic acid oedema; dose corresponding to 10 mg/kg meclofenamic acid (Ib 12.7 mg/kg; sodium meclofenamate 11 mg/kg)): 0.53 ± 0.04; Increase of Original Volume (m ± s.e.), 60 min (arachidonic acid oedema; dose corresponding to 30 mg/kg meclofenamic acid (Ib 38.1 mg/kg, **P < 0.01; sodium meclofenamate 33 mg/kg, *P < 0.05 vs controls)): 0.37 ± 0.05; activity relative to sodium meclofenamate (arachidonic acid oedema; rat): about twice as active as sodium meclofenamate; statistically significant dose as fraction of the LD50 (arachidonic acid oedema; rat, oedema reduced in statistically significant manner): 1/7; activity in the hot plate test (in words) ([2]; mouse): some activity; also recorded: slight analgesic activity after 30 minutes; Percentages of mice protected at 30 minutes [2, 8]: 0%; Percentages of mice protected at 60 minutes [2, 8]: 0%; Percentages of mice protected at 30 minutes [2, 9]: 20%; Percentages of mice protected at 60 minutes [2, 9]: 0%; significance of Ib vs. sodium meclofenamate ([3]; Duncan test): Not significant; % Protection, 0-10 minutes [3, 10]: 41%; % Protection, 10-20 minutes [3, 10]: 19%; % Protection, 20-30 minutes [3, 10]: 31%; % Protection, total [3, 10]: 31%; % Protection, 0-10 minutes [3, 11]: 54%; % Protection, 10-20 minutes [3, 11]: 41%; % Protection, 20-30 minutes [3, 11]: 50%; % Protection, total [3, 11]: 48%; Writhing (m ± s.e.) during 10-20 minutes [3, 12]: 16.6 ± 1.5; Writhing (m ± s.e.) during 20-30 minutes [3, 12]: 9.8 ± 1.0; Writhing (m ± s.e.) during 0-10 minutes [3, 13]: 14.8 ± 2.9; Writhing (m ± s.e.), total minutes [3, 13]: 41.2 ± 4.1; Writhing (m ± s.e.) during 10-20 minutes ([3]; oral, dose corresponding to 20 mg/kg meclofenamic acid (Ib 25.4 mg/kg; sodium meclofenamate 22.0 mg/kg)): 12.1 ± 2.3; Writhing (m ± s.e.) during 0-10 minutes [3, 14]: 11.6 ± 2.5; Writhing (m ± s.e.) during 20-30 minutes [3, 14]: 7.2 ± 1.4; Writhing (m ± s.e.), total minutes [3, 14]: 30.9 ± 5.8; analgesic activity compared with reference (in words) ([3]; oral, vs sodium meclofenamate, both doses): had the anti-inflammatory and analgesic properties of the reference compound; also recorded: comparable with that of sodium meclofenamate; PR (rat; oral LD50, Ib and sodium meclofenamate, rat): 1.935 (1.191-3.586); Slope (rat; oral LD50, probit method): 2.553 ± 0.6302; acute toxicity compared with sodium meclofenamate (in words) (rat; rat, oral LD50): less toxic than sodium meclofenamate, to a statistically significant extent; LD50 at 480 h ([4]; male and female rats, 20 days of observation, probit method, read-out: DL50): 271 mg/kg; LD50 at 480 h ([4]; mg/kg meclofenamic acid, read-out: LD50 as corresponding meclofenamic acid): 213 mg/kg; significance of Ib vs. sodium meclofenamate (carrageenin oedema; Duncan test): Not significant; Increase of original volume (m ± s.e.), 1 h (carrageenin oedema; [15]): 0.44 ± 0.3 mL; Increase of original volume (m ± s.e.), 2 h (carrageenin oedema; [15]): 0.81 ± 0.07 mL; Increase of original volume (m ± s.e.), 3 h (carrageenin oedema; [15]): 1.23 ± 0.06 mL; Increase of original volume (m ± s.e.), 4 h (carrageenin oedema; [15]): 1.39 ± 0.06 mL; Increase of original volume (m ± s.e.), 5 h (carrageenin oedema; [15]): 1.10 ± 0.08 mL; % change of increase of original volume, 1 h (carrageenin oedema; [16]): -6%; % change of increase of original volume, 2 h (carrageenin oedema; [16]): -15%; % change of increase of original volume, 3 h (carrageenin oedema; [16]): -20%; % change of increase of original volume, 4 h (carrageenin oedema; [16]): -8%; % change of increase of original volume, 5 h (carrageenin oedema; [16]): -10%; Increase of original volume (m ± s.e.), 1 h (carrageenin oedema; rat, oral, dose corresponding to 20 mg/kg meclofenamic acid (Ib 25,4 mg/kg; sodium meclofenamate 22,0 mg/kg)): 0.35 ± 0.05 mL; Increase of original volume (m ± s.e.), 2 h (carrageenin oedema; rat, oral, dose corresponding to 20 mg/kg meclofenamic acid (Ib 25,4 mg/kg; sodium meclofenamate 22,0 mg/kg), *P < 0.05): 0.62 ± 0.07 mL; Increase of original volume (m ± s.e.), 3 h (carrageenin oedema; [17]): 0.78 ± 0.07 mL; Increase of original volume (m ± s.e.), 4 h (carrageenin oedema; [17]): 1.11 ± 0.08 mL; Increase of original volume (m ± s.e.), 5 h (carrageenin oedema; [17]): 1.22 ± 0.08 mL; % change of increase of original volume, 1 h (carrageenin oedema; [18]): -22%; % change of increase of original volume, 2 h (carrageenin oedema; [18]): -35%; % change of increase of original volume, 3 h (carrageenin oedema; [18]): -42%; % change of increase of original volume, 4 h (carrageenin oedema; [18]): -31%; % change of increase of original volume, 5 h (carrageenin oedema; [18]): -26%; anti-inflammatory activity compared with reference (in words) (carrageenin oedema; rat, oral, vs sodium meclofenamate): had the anti-inflammatory and analgesic properties of the reference compound; also recorded: behaved in similar manner; minimal effective dose (carrageenin oedema; rat, oral, read-out: dose at which antagonism of the oedema is statistically significant): 68 µmol/kg; pH in 1% aqueous solution (pH of aqueous solution; 1% aqueous solution): 6.9 and 7.1; pH of aqueous solution (in words) (pH of aqueous solution; 1% aqueous solution (Ib)): practically neutral pH
